# Source: patent US20100267561A1, “HERBICIDAL PYRIDAZINONE DERIVATIVES” (priority 2007, published 2010)
# Experiments:
# Assay type in all cases: in vivo
# [1] = test system: canarygrass (Phalaris minor); assay: Test B postemergence plant response; details: for Plant response rating, Canarygrass: Postemergence
# Summary of the method: (§1)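 Visual injury score from 0 (none) to 100 (complete control) versus controls, taken 13 to 15 days after treatment in the greenhouse; chemicals applied postemergence, as formulated, to plants of 1- to 4-leaf stage (2 to 18 cm tall); dash denotes no test result.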
# [2] = test system: chickweed (Stellaria media); assay: Test B postemergence plant response; details: for Plant response rating, Chickweed: Postemergence, scale 0 to 100
# Summary of the method: as §1
# [3] = test system: Italian ryegrass (Lolium multiflorum); assay: Test C pre-/postemergence plant response
# Summary of the method: (§2)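 Ratings ran from 0 (no effect) to 100 (complete control) and were made visually against untreated controls 15–25 days after treatment in a controlled growth environment. Application was preemergence and, for some chemicals, postemergence at the 1- to 4-leaf stage (2–18 cm). Formulation was a non-phytotoxic solvent mixture with surfactant.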
# [4] = test system: annual bluegrass (Poa annua); assay: Test C pre-/postemergence plant response
# Summary of the method: as §2
# [5] = test system: blackgrass (Alopecurus myosuroides); assay: Test C pre-/postemergence plant response
# Summary of the method: as §2
# [6] = test system: canarygrass (Phalaris minor); assay: Test C pre-/postemergence plant response; details: Preemergence
# Summary of the method: as §2
# [7] = test system: downy bromegrass (Bromus tectorum); assay: Test C pre-/postemergence plant response
# Summary of the method: as §2
# [8] = test system: green foxtail (Setaria viridis); assay: Test C pre-/postemergence plant response
# Summary of the method: as §2
# [9] = test system: pigweed (Amaranthus retroflexus); assay: Test C pre-/postemergence plant response
# Summary of the method: as §2
# [10] = test system: spring barley (Hordeum vulgare); assay: Test C pre-/postemergence plant response
# Summary of the method: as §2
# [11] = test system: spring wheat (Triticum aestivum); assay: Test C pre-/postemergence plant response
# Summary of the method: as §2
# [12] = test system: wild mustard (Sinapis arvensis); assay: Test C pre-/postemergence plant response
# Summary of the method: as §2
# wild oat (Avena fatua) = assay: Test C pre-/postemergence plant response
# Summary of the method: as §2
# [13] = test system: windgrass (Apera spica-venti); assay: Test C pre-/postemergence plant response
# Summary of the method: as §2
# [14] = test system: winter barley (Hordeum vulgare); assay: Test C pre-/postemergence plant response
# Summary of the method: as §2
# [15] = test system: winter wheat (Triticum aestivum); assay: Test C pre-/postemergence plant response
# Summary of the method: as §2
# [16] = 8 g ai/ha, postemergence, 0-100 scale
# [17] = Postemergence, 8 g ai/ha, scale 0 to 100, 0 no effect, 100 complete control
# [18] = Postemergence, 16 g ai/ha, scale 0 to 100, 0 no effect, 100 complete control
# [19] = Postemergence, 31 g ai/ha, scale 0 to 100, 0 no effect, 100 complete control
# [20] = Postemergence, 62 g ai/ha, scale 0 to 100, 0 no effect, 100 complete control
# [21] = Preemergence, 8 g ai/ha, scale 0 to 100 (0 no effect, 100 complete control)
# [22] = Preemergence, 16 g ai/ha, scale 0 to 100 (0 no effect, 100 complete control)
# [23] = Preemergence, 31 g ai/ha, scale 0 to 100 (0 no effect, 100 complete control)
# [24] = Preemergence, 62 g ai/ha, scale 0 to 100, 0 no effect, 100 complete control
compound,measurement,setting,value
CCc1cc(-c2ccc(C(F)(F)F)cc2)nn1-c1c(OS(C)(=O)=O)cnn(C)c1=O [Compound 19],Canarygrass plant response rating,[1]; [16],0
same,"Plant response rating, Canarygrass","[1]; 16 g ai/ha, scale 0 to 100",20
same,"Plant response rating, Canarygrass","[1]; 31 g ai/ha, scale 0 to 100, 0 no effect, 100 complete control",20
same,"Plant response rating, Canarygrass","[1]; 62 g ai/ha, scale 0 to 100",100
same,Chickweed plant response rating,[2]; [16],0
same,"Plant response rating, Chickweed",[2]; 16 g ai/ha,0
same,"Plant response rating, Chickweed",[2]; 62 g ai/ha,0
same,"Plant response rating, Ryegrass, Italian",[3]; [17],60
same,"Plant response rating, Ryegrass, Italian",[3]; [18],100
same,"Plant response rating, Ryegrass, Italian",[3]; [19],100
same,"Plant response rating, Ryegrass, Italian",[3]; [20],100
same,"Plant response rating, Ryegrass, Italian",[3]; [21],80
same,"Plant response rating, Ryegrass, Italian",[3]; [22],100
same,"Plant response rating, Ryegrass, Italian",[3]; [23],100
same,"Plant response rating, Ryegrass, Italian",[3]; [24],100
same,"Plant response rating, Bluegrass",[4]; [17],0
same,"Plant response rating, Bluegrass",[4]; [18],0
same,"Plant response rating, Bluegrass",[4]; [19],25
same,"Plant response rating, Bluegrass",[4]; [20],35
same,"Plant response rating, Bluegrass",[4]; [22],0
same,"Plant response rating, Blackgrass",[5]; [17],75
same,"Plant response rating, Blackgrass",[5]; [18],100
same,"Plant response rating, Blackgrass",[5]; [19],100
same,"Plant response rating, Blackgrass",[5]; [20],100
same,"Plant response rating, Blackgrass",[5]; [21],80
same,"Plant response rating, Blackgrass",[5]; [22],100
same,"Plant response rating, Blackgrass",[5]; [23],100
same,"Plant response rating, Blackgrass",[5]; [24],100
same,"Plant response rating, Canarygrass","[6]; 8 g ai/ha, scale 0 to 100 (0 no effect, 100 complete control)",65
same,"Plant response rating, Canarygrass","[6]; 16 g ai/ha, scale 0 to 100 (0 no effect, 100 complete control)",90
same,"Plant response rating, Canarygrass","[6]; 31 g ai/ha, scale 0 to 100 (0 no effect, 100 complete control)",98
same,"Plant response rating, Canarygrass","[6]; 62 g ai/ha, scale 0 to 100, 0 no effect, 100 complete control",100
same,"Plant response rating, Bromegrass, Downy",[7]; [17],40
same,"Plant response rating, Bromegrass, Downy",[7]; [18],65
same,"Plant response rating, Bromegrass, Downy",[7]; [19],98
same,"Plant response rating, Bromegrass, Downy",[7]; [20],100
same,"Plant response rating, Bromegrass, Downy",[7]; [21],30
same,"Plant response rating, Bromegrass, Downy",[7]; [22],65
same,"Plant response rating, Bromegrass, Downy",[7]; [23],75
same,"Plant response rating, Bromegrass, Downy",[7]; [24],95
same,"Plant response rating, Foxtail, Green",[8]; [17],95
same,"Plant response rating, Foxtail, Green",[8]; [18],100
same,"Plant response rating, Foxtail, Green",[8]; [19],100
same,"Plant response rating, Foxtail, Green",[8]; [20],100
same,"Plant response rating, Foxtail, Green",[8]; [21],20
same,"Plant response rating, Foxtail, Green",[8]; [22],100
same,"Plant response rating, Foxtail, Green",[8]; [23],100
same,"Plant response rating, Foxtail, Green",[8]; [24],100
same,"Plant response rating, Pigweed",[9]; [17],0
same,"Plant response rating, Pigweed",[9]; [18],0
same,"Plant response rating, Pigweed",[9]; [19],0
same,"Plant response rating, Pigweed",[9]; [20],0
same,"Plant response rating, Pigweed",[9]; [21],0
same,"Plant response rating, Pigweed",[9]; [22],30
same,"Plant response rating, Pigweed",[9]; [23],50
same,"Plant response rating, Pigweed",[9]; [24],75
same,"Plant response rating, Barley, Spring",[10]; [17],20
same,"Plant response rating, Barley, Spring",[10]; [18],90
same,"Plant response rating, Barley, Spring",[10]; [19],100
same,"Plant response rating, Barley, Spring",[10]; [20],100
same,"Plant response rating, Barley, Spring",[10]; [21],50
same,"Plant response rating, Barley, Spring",[10]; [22],65
same,"Plant response rating, Barley, Spring",[10]; [23],65
same,"Plant response rating, Barley, Spring",[10]; [24],80
same,"Plant response rating, Wheat, Spring",[11]; [17],70
same,"Plant response rating, Wheat, Spring",[11]; [18],80
same,"Plant response rating, Wheat, Spring",[11]; [19],90
same,"Plant response rating, Wheat, Spring",[11]; [20],100
same,"Plant response rating, Wheat, Spring",[11]; [21],0
same,"Plant response rating, Wheat, Spring",[11]; [22],40
same,"Plant response rating, Wheat, Spring",[11]; [23],60
same,"Plant response rating, Wheat, Spring",[11]; [24],75
same,"Plant response rating, Mustard, Wild",[12]; [17],0
same,"Plant response rating, Mustard, Wild",[12]; [18],20
same,"Plant response rating, Mustard, Wild",[12]; [19],20
same,"Plant response rating, Mustard, Wild",[12]; [20],20
same,"Plant response rating, Mustard, Wild",[12]; [21],0
same,"Plant response rating, Mustard, Wild",[12]; [22],0
same,"Plant response rating, Mustard, Wild",[12]; [23],0
same,"Plant response rating, Mustard, Wild",[12]; [24],0
same,"Plant response rating, Oat, Wild",wild oat (Avena fatua); [17],100
same,"Plant response rating, Oat, Wild",wild oat (Avena fatua); [18],100
same,"Plant response rating, Oat, Wild",wild oat (Avena fatua); [19],100
same,"Plant response rating, Oat, Wild",wild oat (Avena fatua); [20],100
same,"Plant response rating, Oat, Wild",wild oat (Avena fatua); [21],65
same,"Plant response rating, Oat, Wild",wild oat (Avena fatua); [22],65
same,"Plant response rating, Oat, Wild",wild oat (Avena fatua); [23],80
same,"Plant response rating, Oat, Wild",wild oat (Avena fatua); [24],95
same,"Plant response rating, Windgrass",[13]; [17],80
same,"Plant response rating, Windgrass",[13]; [18],100
same,"Plant response rating, Windgrass",[13]; [19],100
same,"Plant response rating, Windgrass",[13]; [20],100
same,"Plant response rating, Windgrass",[13]; [21],100
same,"Plant response rating, Windgrass",[13]; [22],100
same,"Plant response rating, Windgrass",[13]; [23],100
same,"Plant response rating, Windgrass",[13]; [24],100
same,"Plant response rating, Barley, Winter",[14]; [17],20
same,"Plant response rating, Barley, Winter",[14]; [18],50
same,"Plant response rating, Barley, Winter",[14]; [19],100
same,"Plant response rating, Barley, Winter",[14]; [20],100
same,"Plant response rating, Barley, Winter",[14]; [21],20
same,"Plant response rating, Barley, Winter",[14]; [22],40
same,"Plant response rating, Barley, Winter",[14]; [23],75
same,"Plant response rating, Barley, Winter",[14]; [24],80
same,"Plant response rating, Wheat, Winter",[15]; [17],20
same,"Plant response rating, Wheat, Winter",[15]; [18],80
same,"Plant response rating, Wheat, Winter",[15]; [19],90
same,"Plant response rating, Wheat, Winter",[15]; [20],100
same,"Plant response rating, Wheat, Winter",[15]; [21],10
same,"Plant response rating, Wheat, Winter",[15]; [22],50
same,"Plant response rating, Wheat, Winter",[15]; [23],60
same,"Plant response rating, Wheat, Winter",[15]; [24],90
